For twelve compounds, inhibition results are on record in patent US11225480B2, “Malic enzyme inhibitors” (SUN PHARMA ADVANCED RESEARCH COMPANY LTD, priority 2019, dated 2022).

Bounds are passed on as bounds.

The target of this test is T1, human ME3 enzyme (Homo sapiens, UniProt Q16798).
T1 sequence (Q16798 1-604): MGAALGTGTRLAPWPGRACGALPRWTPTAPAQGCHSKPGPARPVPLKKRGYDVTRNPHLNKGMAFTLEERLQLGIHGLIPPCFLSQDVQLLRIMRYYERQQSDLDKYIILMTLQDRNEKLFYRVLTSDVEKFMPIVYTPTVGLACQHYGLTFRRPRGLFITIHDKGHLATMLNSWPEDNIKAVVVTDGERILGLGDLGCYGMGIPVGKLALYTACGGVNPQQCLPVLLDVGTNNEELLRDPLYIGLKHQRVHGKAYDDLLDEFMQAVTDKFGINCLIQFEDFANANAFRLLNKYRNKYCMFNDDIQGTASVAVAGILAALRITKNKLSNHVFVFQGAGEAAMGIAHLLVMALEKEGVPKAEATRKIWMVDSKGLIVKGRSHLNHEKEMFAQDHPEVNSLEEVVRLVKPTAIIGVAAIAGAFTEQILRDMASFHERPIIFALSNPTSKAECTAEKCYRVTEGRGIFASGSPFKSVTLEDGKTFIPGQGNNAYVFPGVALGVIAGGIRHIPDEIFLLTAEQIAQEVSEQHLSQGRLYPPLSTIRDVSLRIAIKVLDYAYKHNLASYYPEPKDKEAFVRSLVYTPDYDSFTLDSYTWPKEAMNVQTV
In words: ME3 inhibition assay (diaphorase/resazurin coupled fluorescence). In kind it is biochemical. The following applies: 10 μM compound concentration; read-out: Malic Enzyme 3 % inhibition (10 μM). On the procedure:
ME3 catalyzes the oxidative decarboxylation of malate to pyruvate with conversion of the co-factor β-NADP+ to NADPH. In the fluorescence assay, a coupled reaction is set up wherein an enzyme, Diaphorase, utilizes NADPH generated by ME3, to convert the dye resazurin to a fluorescent molecule resorufin.
The enzyme activity inhibition assay is set up in a 200 μL final reaction volume in a 96-well plate. As per the experimental design, 2 μL of the test compounds at 100× the desired concentration (10 μM) in DMSO were added to the respective wells with 178 μL of assay buffer (50 mM Tris-HCl pH 7.5, 10 mM MnCl2, 3 mM L-malate, 50 μM Resazurin and 0.025 mg/ml Diapharose). The 96-well plate was incubated on a plate shaker at room temperature for 15 minutes protected from light. The well contents were gently mixed by adding 10 μL of 20 nM human ME3 enzyme to the wells and the plate was incubated on a shaker at room temperature for 5 minutes protected from light. Suitable enzyme only and no enzyme controls were included in the experiment. The enzyme reaction was started by adding 10 μL of 1 mM D-NADP+. The reaction was gently mixed and the plate was initially left on a shaker at room temperature for ˜7 minutes protected from light. Later, the plate was incubated without shaking at room temperature for 3 hours. At the end of 3 hours, the fluorescence of the wells was measured at excitation 540 nm and emission 600 nm.
With `O=C(c1cccn2c(-c3ccc(C(F)(F)F)cc3)cnc12)N1CCN(c2ccc(O)cc2)CC1` [I.31, [4-(4-hydroxy-phenyl)-piperazin-1-yl]-[3-(4-trifluoromethyl-phenyl)-imidazo[1,2-a]pyridin-8-yl]-methanone], the inhibition at 10 µM is greater than 90%.

With `O=C(CCc1ccccc1Br)N1CCN(c2ccc(O)cn2)CC1` [I.102, 3-(2-Bromo-phenyl)-1-[4-(5-hydroxy-pyridin-2-yl)-piperazin-1-yl]-propan-1-one], the inhibition at 10 µM was greater than 90%.

For `Cc1ccc(C(=O)N2CCN(c3ccc(O)cn3)CC2)cc1Nc1nccc(-c2cccnc2)n1` [I.85, [4-(5-hydroxy-pyridin-2-yl)-piperazin-1-yl]-[4-methyl-3-(4-pyridin-3-yl-pyrimidin-2-ylamino)-phenyl]-methanone], the inhibition at 10 µM is greater than 90%.

Take `COC(=O)C1C2CCC(O2)C1C(=O)N1CCN(c2ccc(O)cn2)CC1` (stereo not drawn) [I.104, 3-[4-(5-Hydroxy-pyridin-2-yl)-piperazine-1-carbonyl]-7-oxa-bicyclo-[2.2.1]heptane-2-carboxylic acid methyl ester]: the inhibition at 10 µM lay within 70 to 89%.

Regarding `O=C(c1cccn2ccnc12)N1CCN(c2ccc(O)cc2)CC1` [I.29, [4-(4-Hydroxy-phenyl)-piperazin-1-yl]-imidazo[1,2-a]124yridine-8-yl-methanone], the inhibition at 10 µM was greater than 90%.

As to `O=C(c1ccc(Cl)s1)N1CCN(c2ccc(O)cn2)CC1` [I.76, (5-Chloro-thiophen-2-yl)-[4-(5-hydroxy-pyridin-2-yl)-piperazin-1-yl]-methanone], the inhibition at 10 µM is greater than 90%.

Take `O=C(C1CCCCC1)N1CCN(c2ccc(O)cn2)CC1` [I.118, Cyclohexyl-[4-(5-hydroxy-2-pyridyl)-piperazin-1-yl]methanone]: the inhibition at 10 µM was greater than 90%.

For `O=C(C(c1ccccc1)C1CCCCC1)N1CCN(c2ccc(O)cn2)CC1` (stereo not drawn) [I.99, 2-Cyclo-hexyl-1-[4-(5-hydroxy-2-pyridyl)-piperazin-1-yl]-2-phenyl-ethanone], the inhibition at 10 µM is greater than 90%.

For the compound `O=C(c1cccc2cc3ccccc3cc12)N1CCN(c2ccc(O)cc2)CC1` [I.25, Anthracen-1-yl-[4-(4-hydroxy-phenyl)-piperazin-1-yl]-methanone], the inhibition at 10 µM was greater than 90%.

`O=C(/C=C/C1CCCCC1)N1CCN(c2ccc(O)cn2)CC1` [I.120, (E)-3-Cyclo-hexyl-1-[4-(5-hydroxy-2-pyridyl)-piperazin-1-yl]prop-2-en-1-one]: the inhibition at 10 µM is greater than 90%.

On to `CCCCOc1ccc2[nH]cc(C(=O)N3CCN(c4ccc(O)cc4)CC3)c2c1` [I.14, (5-Butoxy-1H-indol-3-yl)-[4-(4-hydroxy-phenyl)-piperazin-1-yl]-methanone], for which the inhibition at 10 µM was greater than 90%.

`O=C(C(c1ccccc1)N1CCOCC1)N1CCN(c2ccc(O)cn2)CC1` (stereo not drawn) [I.117, 1-[4-(5-hydroxy-2-pyridyl)piperazin-1-yl]-2-morpholino-2-phenyl-ethanone]: the inhibition at 10 µM was greater than 90%.
